From patent US9115102B2, “N-[2-hydroxycarbamoyl-2-(piperazinyl) ethyl] benzamide compounds, their preparation and their use as TACE inhibitors” (GALDERMA RESEARCH & DEVELOPMENT, priority 2009, dated 2015)

Legend:
TACE enzyme = TACE enzyme (Homo sapiens, UniProt P78536); assay: Enzymatic test of TACE inhibition (fluorescent substrate); format: biochemical
MMP9 = MMP9 (Homo sapiens (Human), UniProt P14780); assay: Selectivity test, MMP9; format: biochemical
MMP1 = MMP1 (Homo sapiens (Human), UniProt P03956); assay: Selectivity test, MMP1; format: biochemical
MMP3 = MMP3 (Homo sapiens (Human), UniProt P08254); assay: Selectivity test, MMP3; format: biochemical
ADAM10 = ADAM10 (Homo sapiens (Human), UniProt O14672); assay: Selectivity test, ADAM10; format: biochemical
ADAM9 = ADAM9 (Homo sapiens (Human), UniProt Q13443); assay: biochemical
[1] = enzymatic test, substrate 40 μM

MMP3, sequence (P08254 100-477): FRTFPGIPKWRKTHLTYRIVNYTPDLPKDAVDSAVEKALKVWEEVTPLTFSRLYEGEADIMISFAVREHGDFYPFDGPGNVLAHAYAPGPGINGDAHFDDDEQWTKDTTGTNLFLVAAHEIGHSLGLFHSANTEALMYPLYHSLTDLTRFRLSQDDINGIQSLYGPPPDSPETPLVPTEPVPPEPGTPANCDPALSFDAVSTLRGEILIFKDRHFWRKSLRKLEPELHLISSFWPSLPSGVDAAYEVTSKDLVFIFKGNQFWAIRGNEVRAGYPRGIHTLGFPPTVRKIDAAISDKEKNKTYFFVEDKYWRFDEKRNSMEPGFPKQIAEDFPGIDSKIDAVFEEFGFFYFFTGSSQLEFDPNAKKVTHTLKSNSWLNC
MMP1, sequence (P03956 100-469): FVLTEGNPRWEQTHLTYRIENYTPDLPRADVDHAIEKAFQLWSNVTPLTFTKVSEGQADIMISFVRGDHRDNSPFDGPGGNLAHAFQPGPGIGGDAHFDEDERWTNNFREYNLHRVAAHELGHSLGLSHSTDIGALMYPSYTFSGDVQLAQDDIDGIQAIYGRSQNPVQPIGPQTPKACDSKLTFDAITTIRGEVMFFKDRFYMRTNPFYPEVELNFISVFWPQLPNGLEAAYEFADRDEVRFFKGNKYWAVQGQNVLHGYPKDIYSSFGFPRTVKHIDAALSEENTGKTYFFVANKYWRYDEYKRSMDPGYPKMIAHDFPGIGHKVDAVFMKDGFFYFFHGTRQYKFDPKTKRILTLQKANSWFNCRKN
TACE enzyme, sequence (P78536 215-824 limits assumed): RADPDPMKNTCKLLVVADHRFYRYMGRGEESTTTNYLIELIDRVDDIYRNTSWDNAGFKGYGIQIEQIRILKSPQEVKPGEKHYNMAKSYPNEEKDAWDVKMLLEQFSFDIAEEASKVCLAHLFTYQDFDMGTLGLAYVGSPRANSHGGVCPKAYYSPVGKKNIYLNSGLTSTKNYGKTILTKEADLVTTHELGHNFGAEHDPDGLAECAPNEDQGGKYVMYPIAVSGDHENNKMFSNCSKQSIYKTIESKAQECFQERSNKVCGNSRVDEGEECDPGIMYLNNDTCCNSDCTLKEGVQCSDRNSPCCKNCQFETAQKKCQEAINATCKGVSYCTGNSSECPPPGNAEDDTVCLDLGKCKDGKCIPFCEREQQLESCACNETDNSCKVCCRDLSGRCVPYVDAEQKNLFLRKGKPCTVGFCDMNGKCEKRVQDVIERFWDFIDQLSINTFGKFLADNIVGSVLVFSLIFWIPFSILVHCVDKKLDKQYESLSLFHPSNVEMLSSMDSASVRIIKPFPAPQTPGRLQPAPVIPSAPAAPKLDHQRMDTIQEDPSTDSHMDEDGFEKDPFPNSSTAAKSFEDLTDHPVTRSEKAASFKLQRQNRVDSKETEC
MMP9, sequence (P14780 94-707): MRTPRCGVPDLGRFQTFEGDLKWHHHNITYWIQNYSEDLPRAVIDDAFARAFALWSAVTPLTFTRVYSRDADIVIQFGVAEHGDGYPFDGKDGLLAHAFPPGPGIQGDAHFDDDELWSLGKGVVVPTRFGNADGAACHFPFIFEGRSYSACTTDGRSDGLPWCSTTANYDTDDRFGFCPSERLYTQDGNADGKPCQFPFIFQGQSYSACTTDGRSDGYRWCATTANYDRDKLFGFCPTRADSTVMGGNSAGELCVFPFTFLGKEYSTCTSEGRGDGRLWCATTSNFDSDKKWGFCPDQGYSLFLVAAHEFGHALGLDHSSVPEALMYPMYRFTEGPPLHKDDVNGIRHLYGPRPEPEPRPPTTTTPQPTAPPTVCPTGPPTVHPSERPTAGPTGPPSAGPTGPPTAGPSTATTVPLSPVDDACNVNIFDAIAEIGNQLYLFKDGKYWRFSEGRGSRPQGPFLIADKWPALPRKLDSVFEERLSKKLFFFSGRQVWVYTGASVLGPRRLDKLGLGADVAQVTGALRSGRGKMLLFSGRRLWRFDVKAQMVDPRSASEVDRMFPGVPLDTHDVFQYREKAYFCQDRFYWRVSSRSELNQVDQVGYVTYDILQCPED
ADAM10, sequence (O14672 214-748): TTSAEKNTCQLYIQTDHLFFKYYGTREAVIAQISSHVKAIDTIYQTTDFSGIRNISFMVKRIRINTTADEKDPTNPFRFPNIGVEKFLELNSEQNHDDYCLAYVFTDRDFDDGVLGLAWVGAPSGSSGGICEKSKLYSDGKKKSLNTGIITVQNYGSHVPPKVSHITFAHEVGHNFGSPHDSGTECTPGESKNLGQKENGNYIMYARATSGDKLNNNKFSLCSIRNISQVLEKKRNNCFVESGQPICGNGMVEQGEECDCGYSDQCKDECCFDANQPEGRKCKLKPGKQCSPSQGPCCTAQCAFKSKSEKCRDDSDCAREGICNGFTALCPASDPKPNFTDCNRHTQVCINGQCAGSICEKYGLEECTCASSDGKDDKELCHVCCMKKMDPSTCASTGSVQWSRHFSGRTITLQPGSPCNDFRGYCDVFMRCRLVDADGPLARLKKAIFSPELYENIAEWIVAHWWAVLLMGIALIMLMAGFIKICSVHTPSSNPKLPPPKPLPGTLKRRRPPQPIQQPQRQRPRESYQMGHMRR
ADAM9, sequence (Q13443 29-819): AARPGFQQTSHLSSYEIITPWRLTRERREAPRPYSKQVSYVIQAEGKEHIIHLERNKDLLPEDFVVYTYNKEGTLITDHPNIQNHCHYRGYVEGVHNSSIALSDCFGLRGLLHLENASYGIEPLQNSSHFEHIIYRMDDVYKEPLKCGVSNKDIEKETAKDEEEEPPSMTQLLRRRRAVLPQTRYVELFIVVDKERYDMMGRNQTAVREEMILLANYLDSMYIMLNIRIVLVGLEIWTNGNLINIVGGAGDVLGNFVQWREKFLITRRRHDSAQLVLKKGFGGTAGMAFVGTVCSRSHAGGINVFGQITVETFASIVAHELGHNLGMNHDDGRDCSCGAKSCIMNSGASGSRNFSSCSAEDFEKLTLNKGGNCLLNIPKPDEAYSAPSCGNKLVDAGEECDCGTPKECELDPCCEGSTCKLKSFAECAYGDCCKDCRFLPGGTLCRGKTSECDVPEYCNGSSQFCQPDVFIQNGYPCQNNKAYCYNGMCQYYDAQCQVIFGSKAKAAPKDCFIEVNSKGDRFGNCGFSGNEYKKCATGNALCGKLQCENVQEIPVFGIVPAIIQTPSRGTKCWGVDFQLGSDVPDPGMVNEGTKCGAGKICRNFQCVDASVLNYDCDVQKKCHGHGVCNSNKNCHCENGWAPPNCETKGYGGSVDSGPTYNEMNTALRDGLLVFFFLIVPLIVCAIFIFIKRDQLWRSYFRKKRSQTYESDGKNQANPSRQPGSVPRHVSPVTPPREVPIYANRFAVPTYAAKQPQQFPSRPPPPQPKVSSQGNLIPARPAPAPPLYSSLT

`CC#CCOc1ccc(C(=O)NCC(C(=O)NO)N2CCN(S(C)(=O)=O)CC2)cc1` (stereo not drawn) [Example 1, 4-But-2-ynyloxy-N-[2-hydroxycarbamoyl-2-(4-methanesulphonylpiperazin-1-yl)ethyl]benzamide] was tested, and the “% TACE inhibition at 10 μM” value (TACE enzyme) was 100% and the IC50 (TACE enzyme; [1]) was 32 nM.
Compound `CC#CCOc1ccc(C(=O)NC[C@@H](C(=O)NO)N2CCN(S(C)(=O)=O)CC2)cc1` [Example 2, 4-But-2-ynyloxy-N—[(S)-2-hydroxycarbamoyl-2-(4-methanesulphonylpiperazin-1-yl)ethyl]benzamide] has an IC50 (MMP9) of over 10000 nM, an IC50 (MMP1) of over 10000 nM and an IC50 (MMP3) of 6310 nM. The “% TACE inhibition at 10 μM” value (TACE enzyme) was 100%, the IC50 (TACE enzyme; [1]) was 28 nM and the IC50 (TACE enzyme; selectivity table) was 28 nM.
`COc1ccc(C(=O)NC[C@@H](C(=O)NO)N2CCN(S(C)(=O)=O)CC2)cc1` [Example 4, N—[(S)-2-hydroxycarbamoyl-2-(4-methane-sulphonylpiperazin-1-yl)ethyl]-4-methoxybenzamide] was tested, and the “% TACE inhibition at 10 μM” value (TACE enzyme) was 100% and the IC50 (TACE enzyme; [1]) was 160 nM.
For `CS(=O)(=O)N1CCN([C@@H](CNC(=O)c2ccc(OCC3CC3)cc2)C(=O)NO)CC1` [Example 5, 4-cyclopropylmethoxy-N—[(S)-2-hydroxycarbamoyl-2-(4-methanesulphonylpiperazin-1-yl)ethyl]benzamide], the “% TACE inhibition at 10 μM” value (TACE enzyme) was 100% and the IC50 (TACE enzyme; [1]) was 200 nM.
In the case of `CS(=O)(=O)N1CCN([C@@H](CNC(=O)c2ccc(OCc3ccccc3)cc2)C(=O)NO)CC1` [Example 6, 4-benzyloxy-N—[(S)-2-hydroxycarbamoyl-2-(4-methanesulphonylpiperazin-1-yl)ethyl]benzamide], the “% TACE inhibition at 10 μM” value (TACE enzyme) is reported as 100% and the IC50 (TACE enzyme; [1]) is reported as 40 nM.
`CC#CCOc1ccc(C(=O)NC[C@@H](C(=O)NO)N2CCN(S(=O)(=O)c3ccc(C)cc3)CC2)cc1` [Example 8, 4-but-2-ynyloxy-N-{(S)-2-hydroxycarbamoyl-2-[4-(toluene-4-sulphonyl)piperazin-1-yl]ethyl}benzamide] was tested, and the “% TACE inhibition at 10 μM” value (TACE enzyme) was 100% and the IC50 (TACE enzyme; [1]) was 54 nM.
In the case of `CS(=O)(=O)N1CCN([C@@H](CNC(=O)c2ccc(OCc3ccc(F)cc3)cc2)C(=O)NO)CC1` [Example 9, 4-(4-fluorobenzyloxy)-N—[(S)-2-hydroxycarbamoyl-2-(4-methanesulphonylpiperazin-1-yl)ethyl]benzamide], the “% TACE inhibition at 10 μM” value (TACE enzyme) is reported as 98% and the IC50 (TACE enzyme; [1]) is reported as 21 nM.
With `CS(=O)(=O)N1CCN([C@@H](CNC(=O)c2ccc(OCc3ccc(C(F)(F)F)cc3)cc2)C(=O)NO)CC1` [Example 10, N—[(S)-2-hydroxycarbamoyl-2-(4-methane-sulphonylpiperazin-1-yl)ethyl]-4-(4-trifluoromethyl-benzyloxy)benzamide] the “% TACE inhibition at 10 μM” value (TACE enzyme) was 97% and the IC50 (TACE enzyme; [1]) was 117 nM.
`Cc1ccc(COc2ccc(C(=O)NC[C@@H](C(=O)NO)N3CCN(S(C)(=O)=O)CC3)cc2)cc1` [Example 11, N—[(S)-2-hydroxycarbamoyl-2-(4-methane-sulphonylpiperazin-1-yl)ethyl]-4-(4-methylbenzyloxy)-benzamide] was tested, and the “% TACE inhibition at 10 μM” value (TACE enzyme) was 96% and the IC50 (TACE enzyme; [1]) was 95 nM.
For `CC#CCOc1ccc(C(=O)N(C)C[C@@H](C(=O)NO)N2CCN(S(C)(=O)=O)CC2)cc1` [Example 13, 4-But-2-ynyloxy-N—[(S)-2-hydroxycarbamoyl-2-(4-methanesulphonylpiperazin-1-yl)ethyl]-N-methylbenzamide], the “% TACE inhibition at 10 μM” value (TACE enzyme) was 98% and the IC50 (TACE enzyme; [1]) was 22 nM.
`Cc1cc(COc2ccc(C(=O)NC[C@@H](C(=O)NO)N3CCN(S(C)(=O)=O)CC3)cc2)c2ccccc2n1` [Example 14, N—[(S)-2-Hydroxycarbamoyl-2-(4-methane-sulphonylpiperazin-1-yl)ethyl]-4-(2-methylquinolin-4-ylmethoxy)benzamide] was tested, and the IC50 (MMP1) was 2610 nM, the IC50 (MMP3) was 6830 nM and the “% TACE inhibition at 10 μM” value (TACE enzyme) was 98%. It also gave an IC50 (ADAM10) of 5790 nM.
`CS(=O)(=O)N1CCN([C@@H](CNC(=O)c2ccc(OCC#CCO)cc2)C(=O)NO)CC1` [Example 16, 4-(4-Hydroxybut-2-ynyloxy)-N—[(S)-2-hydroxycarbamoyl-2-(4-methanesulphonylpiperazin-1-yl)-ethyl]benzamide] was tested, and the “% TACE inhibition at 10 μM” value (TACE enzyme) was 97% and the IC50 (TACE enzyme; [1]) was 35 nM.
`COc1ccc(COc2ccc(C(=O)NC[C@@H](C(=O)NO)N3CCN(S(C)(=O)=O)CC3)cc2)cc1` [Example 17, N—[(S)-2-Hydroxycarbamoyl-2-(4-methane-sulphonylpiperazin-1-yl)ethyl]-4-(4-methoxybenzyloxy)-benzamide] was tested, and the “% TACE inhibition at 10 μM” value (TACE enzyme) was 98% and the IC50 (TACE enzyme; [1]) was 70 nM.
In the case of `CS(=O)(=O)N1CCN([C@@H](CNC(=O)c2ccc(OCc3ccncc3)cc2)C(=O)NO)CC1` [Example 18, N—[(S)-2-Hydroxycarbamoyl-2-(4-methane-sulphonylpiperazin-1-yl)ethyl]-4-(pyridin-4-ylmethoxy)-benzamide], the “% TACE inhibition at 10 μM” value (TACE enzyme) is reported as 98% and the IC50 (TACE enzyme; [1]) is reported as 99 nM.
`Cc1ccc2ccccc2c1COc1ccc(C(=O)NC[C@@H](C(=O)NO)N2CCN(S(C)(=O)=O)CC2)cc1` [Example 19, N—[(S)-2-Hydroxycarbamoyl-2-(4-methane-sulphonylpiperazin-1-yl)ethyl]-4-(2-methylnaphthalen-1-ylmethoxy)benzamide] was tested, and the “% TACE inhibition at 10 μM” value (TACE enzyme) was 90% and the IC50 (TACE enzyme; [1]) was 138 nM.
For `CS(=O)(=O)N1CCN([C@@H](CNC(=O)c2ccc(OCc3ccnc4ccccc34)cc2)C(=O)NO)CC1` [Example 21, N—[(S)-2-hydroxycarbamoyl-2-(4-methane-sulphonylpiperazin-1-yl)ethyl]-4-(quinolin-4-ylmethoxy)benzamide], the “% TACE inhibition at 10 μM” value (TACE enzyme) was 96% and the IC50 (TACE enzyme; [1]) was 118 nM.
In the case of `Cc1cc(COc2ccc(C(=O)NC[C@@H](C(=O)NO)N3CCN(Cc4ccccc4)CC3)cc2)c2ccccc2n1` [Example 22, N—[(S)-2-(4-Benzylpiperazin-1-yl)-2-hydroxycarbamoylethyl]-4-(2-methylquinolin-4-yl-methoxy)benzamide], the “% TACE inhibition at 10 μM” value (TACE enzyme) is reported as 97% and the IC50 (TACE enzyme; [1]) is reported as 79 nM.
`Cc1cc(COc2ccc(C(=O)NC[C@@H](C(=O)NO)N3CCN(S(=O)(=O)C(C)C)CC3)cc2)c2ccccc2n1` [Example 23, N-{(S)-2-Hydroxycarbamoyl-2-[4-(propane-2-sulphonyl)piperazin-1-yl]ethyl}-4-(2-methylquinolin-4-ylmethoxy)benzamide] was tested, and the “% TACE inhibition at 10 μM” value (TACE enzyme) was 97% and the IC50 (TACE enzyme; [1]) was 102 nM.
For `Cc1cc(COc2ccc(C(=O)NC[C@@H](C(=O)NO)N3CCN(S(C)(=O)=O)CC3)cc2)c2ccccc2n1.Cl.Cl` [Example 24, N—[(S)-2-Hydroxycarbamoyl-2-(4-methane-sulphonylpiperazin-1-yl)ethyl]-4-(2-methylquinolin-4-ylmethoxy)benzamide dihydrochloride], the “% TACE inhibition at 10 μM” value (TACE enzyme) was 98%.
In the case of `CCN1CCN([C@@H](CNC(=O)c2ccc(OCc3cc(C)nc4ccccc34)cc2)C(=O)NO)CC1` [Example 25, N—[(S)-2-(4-Ethylpiperazin-1-yl)-2-hydroxycarbamoylethyl]-4-(2-methylquinolin-4-ylmethoxy)-benzamide], the “% TACE inhibition at 10 μM” value (TACE enzyme) is reported as 90% and the IC50 (TACE enzyme; [1]) is reported as 45 nM.
`O=C(NCC(C(=O)NO)N1CCN(Cc2ccccc2)CC1)c1ccc(OCc2c(C(F)(F)F)nn3ccccc23)cc1` (stereo not drawn) [Example 27, N-[2-(4-Benzylpiperazin-1-yl)-2-hydroxycarbamoylethyl]-4-(2-trifluoromethylpyrazolo[1,5-a]pyridin-3-ylmethoxy)benzamide] was tested, and the IC50 (ADAM9) was over 10000 nM, the IC50 (MMP9) was over 10000 nM and the IC50 (MMP1) was over 10000 nM. The IC50 (MMP3) was over 10000 nM, the “% TACE inhibition at 10 μM” value (TACE enzyme) was 95% and the IC50 (ADAM10) was over 10000 nM.
